Test system: mice
Assay: Loaded swimming test, exercise time to exhaustion
Assay type: in vivo
Conditions: intragastric, 1 hour prior to test
Procedure: Adult (8-10 weeks) male ICR mice were used in this study and purchased from Beijing Vital River Laboratory Animal Technology Co., Ltd. All the mice were provided with a normal diet and water ad libitum. All procedures were approved by institutional guidelines and the Animal Care and Use Committee (Huazhong University of Science and Technology, Wuhan, China) of the university's animal core facility. The mice were group-housed under a 12 h light-dark cycle (lights on at 8:00 a.m.), at consistent humidity (50±5%), and ambient temperature (22˜24° C.).
The animals were bred with three mice per cage in the laboratory, and were acclimatized for 1 week before the experiments. The mice were grouped randomly for each experiment. The mice in each group were given the corresponding dose amino acid and the control group was treated with the equal volume of normal saline (NS) through intragastric administration. Loaded swimming experiments were performed to assess the acute effect of the amino acids on endurance one hour after the treatment
The NS injection were purchased from Beijing Pharmaceutical Group Co., Ltd. The amino acid powders were dissolved in NS and then were intragastric administration to mice by lavage needle (Beijing Vital River Laboratory Animal Technology Co., Ltd.).
Acute effects on endurance performance were assessed by loaded swimming test one hour after the amino acid treatment. The swimming exercise was carried out in a tank (diameter 120 cm) filled with fresh water to 30-cm depth at 24±2° C. A tin wire (⅛ of body weight) was attached on the tail of the mouse. […] The length of time each mouse kept swimming before exhaustion (exercise time to exhaustion) was recorded. At the end of the session, the mice were removed from the water, dried with paper towels, and placed back in their home cages.
Sixty mice were randomly divided into four groups (n=15 per group). Each of the four group were treated with NS, citrulline (200 mg/kg body weight), GABA (150 mg/kg body weight), and citrulline/GABA mixture (200 mg/kg+150 mg/kg) respectively. The results were summarized below (Table 2 and FIG. 1).
The methods used here are the same as in Example 1, but GABA (150 mg/kg) was replaced by taurine (200 mg/kg). The results were summarized below (Table 3 and FIG. 2).
The methods used here are the same as in Example 1. Sixty mice were randomly divided into four groups (n=15 per group). Each of the four group were treated with NS, citrulline (75 mg/kg body weight), taurine (25 mg/kg body weight), and citrulline taurine mixture (75 mg/kg+25 mg/kg) respectively. The results were summarized below (Table 4 and FIG. 3).

[1] = Example 1, citrulline 200 mg/kg, GABA 150 mg/kg, mixture 200 mg/kg+150 mg/kg, male ICR mice
[2] = Example 2, citrulline 200 mg/kg, taurine 200 mg/kg, mixture 200 mg/kg+200 mg/kg
[3] = Example 3, lower doses, citrulline 75 mg/kg, taurine 25 mg/kg, mixture 75 mg/kg+25 mg/kg

With `NC(=O)NCCC[C@H](N)C(=O)O` [Citrulline, L-citrulline] the “Average Time (s), exercise time to exhaustion” value (from here on “Average Time (s), exercise time”) [1] was 245.4 s, the “Average Time (s), exercise time” value (Example 1, citrulline 200 mg/kg, GABA 150 mg/kg, mixture 200 mg/kg+150 mg/kg, male ICR mice, listed as citrulline) was “about 245.4 s” and the “Average Time (s), exercise time” value [2] was 194.6 s. For the same molecule, the “Increase of exercise time to exhaustion vs control” value (“Increase of exercise time” below) [2] was 15.6%, the “Increase of exercise time” value (Example 2, citrulline 200 mg/kg, taurine 200 mg/kg, mixture 200 mg/kg+200 mg/kg, listed as citrulline) was 15.6% and the “Average Time (s), exercise time” value [3] was 207.7 s. For the same molecule, the “Increase of exercise time” value [3] was 23.4% and the “Increase of exercise time” value (Example 3, lower doses, citrulline 75 mg/kg, taurine 25 mg/kg, mixture 75 mg/kg+25 mg/kg, listed as citrulline) was 23.4%.

`NCCCC(=O)O` [GABA, gamma-aminobutyric acid, reference compound] was tested, and the “Average Time (s), exercise time” value [1] was 216.8 s.

For `NCCS(=O)(=O)O` [Taurine, taurine], the “Average Time (s), exercise time” value [2] was 208 s, the “Increase of exercise time” value [2] was 23.6% and the “Increase of exercise time” value (Example 2, citrulline 200 mg/kg, taurine 200 mg/kg, mixture 200 mg/kg+200 mg/kg, listed as taurine) was 23.6%. For the same molecule, the “Average Time (s), exercise time” value [3] was 181 s, the “Increase of exercise time” value [3] was 7.5% and the “Increase of exercise time” value (Example 3, lower doses, citrulline 75 mg/kg, taurine 25 mg/kg, mixture 75 mg/kg+25 mg/kg, listed as taurine) was 7.5%.
